Measurements published in ChEMBL document CHEMBL6115017, “Discovery of DFV890, a Potent Sulfonimidamide-Containing NLRP3 Inflammasome Inhibitor” (J Med Chem, 2025).
The source made the active and inactive calls. The rule behind the calls is not given here.

Legend:
[1] = Apparent permeability of the compound across apical to basolateral side in MDCK; type: ADME, cell-based, Canis lupus familiaris; settings: dog
Mus musculus = test: In vivo anti-inflammatory activity against MSU crystal-induced gouty arthritis Balb/c mouse model assessed as reduction of volume of pouch exudate at 0.1 to 50 mg/kg, po single dose; type: functional, organism-based; settings: dose 0.1-50 mg/kg
[2] = biological target: Nucleotide-binding oligomerization domain-containing protein 2 (Homo sapiens) (UniProt Q9HC29); test: Inhibition of human NOD2 inflammasome activation expressed in […] cells assessed as inhibition of L18-MDP induced NF-kappaB activation by measuring SEAP activity pretreated for 1 hr followed by induced with L18-MDP measured after 18 hrs by Spectrophotometric analysis; type: cell-based; settings: HEK, time 19.0 hrs
Nucleotide-binding oligomerization domain-containing protein 2 (Homo sapiens), sequence (Q9HC29 whole entry, the tested form may be a part): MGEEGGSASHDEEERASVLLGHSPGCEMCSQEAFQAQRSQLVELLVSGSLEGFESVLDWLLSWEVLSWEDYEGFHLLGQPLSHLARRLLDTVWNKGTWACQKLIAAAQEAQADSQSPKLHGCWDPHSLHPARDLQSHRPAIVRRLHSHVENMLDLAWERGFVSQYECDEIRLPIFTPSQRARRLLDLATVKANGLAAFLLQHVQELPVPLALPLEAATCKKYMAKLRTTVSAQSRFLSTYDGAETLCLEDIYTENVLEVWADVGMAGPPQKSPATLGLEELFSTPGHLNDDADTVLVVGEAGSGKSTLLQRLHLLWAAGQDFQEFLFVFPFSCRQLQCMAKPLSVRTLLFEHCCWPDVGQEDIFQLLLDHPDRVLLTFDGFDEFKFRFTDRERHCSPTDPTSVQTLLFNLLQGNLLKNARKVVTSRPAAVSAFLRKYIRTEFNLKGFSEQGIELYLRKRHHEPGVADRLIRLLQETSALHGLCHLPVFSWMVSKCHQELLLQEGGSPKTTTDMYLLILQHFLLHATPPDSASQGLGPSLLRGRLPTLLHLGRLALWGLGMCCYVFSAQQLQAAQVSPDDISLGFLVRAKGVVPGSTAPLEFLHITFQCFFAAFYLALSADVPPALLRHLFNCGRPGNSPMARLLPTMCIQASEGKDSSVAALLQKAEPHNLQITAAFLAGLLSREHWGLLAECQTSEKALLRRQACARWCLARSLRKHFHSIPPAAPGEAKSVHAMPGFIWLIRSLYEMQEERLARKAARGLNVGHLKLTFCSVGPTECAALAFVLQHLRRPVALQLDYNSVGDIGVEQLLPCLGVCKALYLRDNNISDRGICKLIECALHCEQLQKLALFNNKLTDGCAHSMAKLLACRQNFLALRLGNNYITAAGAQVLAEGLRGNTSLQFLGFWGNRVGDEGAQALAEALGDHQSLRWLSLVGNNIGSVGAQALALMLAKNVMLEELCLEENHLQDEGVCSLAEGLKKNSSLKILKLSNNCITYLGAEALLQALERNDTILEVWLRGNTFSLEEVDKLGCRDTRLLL

Cytochrome P450 2B6 = biological target: T1, Cytochrome P450 2B6 (Homo sapiens, UniProt P20813); test: Inhibition of CYP2B6 (unknown origin); type: ADME
T1 sequence (P20813 whole entry): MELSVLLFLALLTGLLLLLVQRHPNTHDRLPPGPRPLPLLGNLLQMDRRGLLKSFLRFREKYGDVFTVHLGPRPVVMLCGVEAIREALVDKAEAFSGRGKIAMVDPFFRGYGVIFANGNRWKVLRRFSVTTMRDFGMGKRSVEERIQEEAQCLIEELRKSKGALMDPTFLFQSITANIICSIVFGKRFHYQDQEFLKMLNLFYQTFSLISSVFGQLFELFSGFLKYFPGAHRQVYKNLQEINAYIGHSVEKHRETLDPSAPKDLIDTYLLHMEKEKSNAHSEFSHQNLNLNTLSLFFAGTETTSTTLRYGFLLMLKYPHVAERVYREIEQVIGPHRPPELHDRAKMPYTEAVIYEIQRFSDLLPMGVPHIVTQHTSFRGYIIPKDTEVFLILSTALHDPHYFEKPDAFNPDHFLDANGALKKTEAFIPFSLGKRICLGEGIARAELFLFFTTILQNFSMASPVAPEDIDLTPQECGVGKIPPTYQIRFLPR

Cytochrome P450 2C8 = biological target: T2, Cytochrome P450 2C8 (Homo sapiens, UniProt P10632); test: Inhibition of CYP2C8 (unknown origin) by time dependent inhibition assay; type: ADME
T2 sequence (P10632 whole entry): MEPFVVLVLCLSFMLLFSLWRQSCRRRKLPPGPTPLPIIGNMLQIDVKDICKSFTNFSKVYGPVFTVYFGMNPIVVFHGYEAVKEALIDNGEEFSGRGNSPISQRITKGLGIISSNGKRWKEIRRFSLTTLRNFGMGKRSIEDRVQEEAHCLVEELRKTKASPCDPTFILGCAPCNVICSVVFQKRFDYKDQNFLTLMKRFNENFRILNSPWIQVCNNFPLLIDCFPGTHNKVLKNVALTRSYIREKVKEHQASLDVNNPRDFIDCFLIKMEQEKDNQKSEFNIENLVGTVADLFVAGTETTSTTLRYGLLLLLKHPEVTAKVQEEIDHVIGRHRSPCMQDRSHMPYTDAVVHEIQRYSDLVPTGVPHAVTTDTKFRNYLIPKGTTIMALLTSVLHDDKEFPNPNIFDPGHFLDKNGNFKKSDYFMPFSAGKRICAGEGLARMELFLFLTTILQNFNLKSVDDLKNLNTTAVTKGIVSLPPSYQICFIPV

[3] = AUC (infinity) in Cynomolgus monkey at 5 mg/kg, po by LC-MS analysis; type: ADME, organism-based, Macaca fascicularis; settings: in vivo
[4] = Fraction unbound in Beagle dog […] plasma; type: ADME, cell-free, Canis lupus familiaris
[5] = Metabolic stability in dog hepatocytes assessed as intrinsic clearance measured per 10^6 cells; type: ADME, cell-based, Canis lupus familiaris, Hepatocyte; settings: read-out: CLH
Cytochrome P450 3A4 = Cytochrome P450 3A4 (Homo sapiens, UniProt P08684); test: Inhibition of CYP3A4 (unknown origin) by time dependent inhibition assay; type: ADME
Cytochrome P450 3A4, sequence (P08684 whole entry): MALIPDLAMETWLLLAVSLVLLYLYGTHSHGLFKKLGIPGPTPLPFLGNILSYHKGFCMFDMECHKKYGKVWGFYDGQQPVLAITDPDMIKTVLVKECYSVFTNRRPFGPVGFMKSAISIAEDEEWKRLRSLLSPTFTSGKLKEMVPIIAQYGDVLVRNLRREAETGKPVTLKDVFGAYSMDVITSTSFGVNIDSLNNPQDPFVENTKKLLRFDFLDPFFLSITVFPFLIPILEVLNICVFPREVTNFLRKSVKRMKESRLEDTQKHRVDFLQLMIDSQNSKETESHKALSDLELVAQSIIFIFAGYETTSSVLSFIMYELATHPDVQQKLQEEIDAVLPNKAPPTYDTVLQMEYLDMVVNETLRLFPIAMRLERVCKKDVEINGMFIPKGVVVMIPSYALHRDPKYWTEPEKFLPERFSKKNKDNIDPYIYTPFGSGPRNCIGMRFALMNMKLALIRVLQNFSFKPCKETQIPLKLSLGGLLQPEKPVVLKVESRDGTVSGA

Cytochrome P450 1A2 = biological target: T3, Cytochrome P450 1A2 (Homo sapiens, UniProt P05177); test: Inhibition of CYP1A2 (unknown origin) by time dependent inhibition assay; type: ADME
T3 sequence (P05177 whole entry): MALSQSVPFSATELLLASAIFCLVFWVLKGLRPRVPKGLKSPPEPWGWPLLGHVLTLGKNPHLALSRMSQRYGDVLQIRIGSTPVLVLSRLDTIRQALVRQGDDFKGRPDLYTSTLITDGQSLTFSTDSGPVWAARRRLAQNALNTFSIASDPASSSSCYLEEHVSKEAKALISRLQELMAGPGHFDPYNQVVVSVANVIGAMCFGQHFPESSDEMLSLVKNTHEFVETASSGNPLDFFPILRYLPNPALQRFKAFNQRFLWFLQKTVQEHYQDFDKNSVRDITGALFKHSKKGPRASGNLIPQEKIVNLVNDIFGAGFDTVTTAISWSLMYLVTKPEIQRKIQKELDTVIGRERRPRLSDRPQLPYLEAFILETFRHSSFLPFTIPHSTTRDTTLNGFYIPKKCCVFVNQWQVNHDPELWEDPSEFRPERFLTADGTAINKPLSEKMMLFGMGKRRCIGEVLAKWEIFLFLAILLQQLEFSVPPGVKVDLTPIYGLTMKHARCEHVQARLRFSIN

[6] = Fraction unbound in Cynomolgus monkey plasma; type: ADME, cell-free, Macaca fascicularis
Cytochrome P450 2C19 = Cytochrome P450 2C19 (Homo sapiens, UniProt P33261); test: Inhibition of CYP2C19 (unknown origin) by time dependent inhibition assay; type: ADME
Cytochrome P450 2C19, sequence (P33261 whole entry): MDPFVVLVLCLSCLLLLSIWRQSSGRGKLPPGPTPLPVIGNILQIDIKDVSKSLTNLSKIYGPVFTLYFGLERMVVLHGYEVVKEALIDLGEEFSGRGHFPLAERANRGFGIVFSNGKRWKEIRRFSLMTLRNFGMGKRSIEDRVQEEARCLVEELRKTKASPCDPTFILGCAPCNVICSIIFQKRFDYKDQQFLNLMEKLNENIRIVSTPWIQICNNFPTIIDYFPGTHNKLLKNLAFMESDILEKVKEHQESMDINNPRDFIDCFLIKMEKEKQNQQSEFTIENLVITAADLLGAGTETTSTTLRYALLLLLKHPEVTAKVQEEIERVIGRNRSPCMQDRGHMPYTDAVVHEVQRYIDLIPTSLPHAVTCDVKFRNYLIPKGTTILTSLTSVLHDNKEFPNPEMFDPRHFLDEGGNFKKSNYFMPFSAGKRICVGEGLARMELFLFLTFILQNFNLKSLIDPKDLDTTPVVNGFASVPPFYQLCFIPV

Cytochrome P450 2C9 = Cytochrome P450 2C9 (Homo sapiens, UniProt P11712); test: Inhibition of CYP2C9 (unknown origin) by time dependent inhibition assay; type: ADME
Cytochrome P450 2C9, sequence (P11712 whole entry): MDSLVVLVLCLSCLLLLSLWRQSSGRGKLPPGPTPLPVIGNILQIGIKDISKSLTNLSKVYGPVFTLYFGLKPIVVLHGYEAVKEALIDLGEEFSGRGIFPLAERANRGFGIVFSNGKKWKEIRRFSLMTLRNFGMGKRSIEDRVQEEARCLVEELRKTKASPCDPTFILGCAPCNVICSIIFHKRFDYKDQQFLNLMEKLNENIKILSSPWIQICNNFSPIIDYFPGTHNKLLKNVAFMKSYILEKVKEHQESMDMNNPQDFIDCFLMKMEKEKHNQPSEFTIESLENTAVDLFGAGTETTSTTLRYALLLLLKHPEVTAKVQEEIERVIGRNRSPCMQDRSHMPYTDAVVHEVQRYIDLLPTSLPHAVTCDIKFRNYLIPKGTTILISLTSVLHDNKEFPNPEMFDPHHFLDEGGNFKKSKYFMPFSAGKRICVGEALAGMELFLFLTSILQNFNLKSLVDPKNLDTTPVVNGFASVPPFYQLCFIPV

THP-1 = test: Inhibition of mCerulean-tagged ASC pyroptosome formation in PMA-primed human THP-1 cells assessed as speak count pretreated for 1 hr followed by stimulated with gramicidin for 2 hrs by fluorescence imaging analysis; type: cell-based; settings: dose 0.001-100 µM
[7] = Cmax in Cynomolgus monkey at 5 mg/kg, po by LC-MS analysis; type: ADME, organism-based, Macaca fascicularis; settings: in vivo

For `CC(C)(O)c1ncc([S@](N)(=O)=NC(=O)Nc2c3c(cc4c2CCC4)CCC3)s1`, the Papp A→B [1] was 8.2 ×10⁻⁶ cm/s, the Activity (Mus musculus) was “Active” and the Activity [2] was “inactive”. For the same compound, the IC50 (Cytochrome P450 2B6) was > 60 µM, the TDI (Cytochrome P450 2C8) was “Not_active” and the AUC(0-inf) [3] was 331 µg·h/mL. The fraction unbound [4] was 0.009, the hepatocyte CLint [5] was < 1.9 µL/min/1e6 cells and the TDI (Cytochrome P450 3A4) was “Not_active”. For the same compound, the TDI (Cytochrome P450 1A2) was “Not_active”, the fraction unbound [6] was 0.005 and the TDI (Cytochrome P450 2C19) was “Not_active”. The TDI (Cytochrome P450 2C9) was “Not_active”, the inhibition (THP-1) was “Dose-dependent-effect” and the Cmax [7] was 21500 ng/mL.
